Test results taken from US20190380978A1, “SOLID ORAL DOSAGE FORMS OF 2R,6R-HYDROXYNORKETAMINE OR DERIVATIVES THEREOF” (priority 2016, published 2019).

Experiments:
5-HT1, Non-Selective = test: binding to 5-HT1 receptors, non-selective
Source text: (§1) 2R,6R-hydroxynorketamine was investigated for binding to monoamine oxidases A and B, monoamine transporters, as well as a variety of 5HT receptors.
An absence of interaction between 2R,6R-hydroxynorketamine and 5HT1 receptors is also of note. Rare postmarketing reports have described patients with weakness, hyperreflexia, and incoordination following the use of an SSRI and the 5HT1 agonist, sumatriptan. The possibility of such interactions should also be considered if other 5HT1 agonists are to be used in combination with SSRIs.

MAO-A = MAO-A (Homo sapiens, UniProt P21397); test: binding to monoamine oxidase A
Chain of MAO-A (P21397 whole entry, species assumed): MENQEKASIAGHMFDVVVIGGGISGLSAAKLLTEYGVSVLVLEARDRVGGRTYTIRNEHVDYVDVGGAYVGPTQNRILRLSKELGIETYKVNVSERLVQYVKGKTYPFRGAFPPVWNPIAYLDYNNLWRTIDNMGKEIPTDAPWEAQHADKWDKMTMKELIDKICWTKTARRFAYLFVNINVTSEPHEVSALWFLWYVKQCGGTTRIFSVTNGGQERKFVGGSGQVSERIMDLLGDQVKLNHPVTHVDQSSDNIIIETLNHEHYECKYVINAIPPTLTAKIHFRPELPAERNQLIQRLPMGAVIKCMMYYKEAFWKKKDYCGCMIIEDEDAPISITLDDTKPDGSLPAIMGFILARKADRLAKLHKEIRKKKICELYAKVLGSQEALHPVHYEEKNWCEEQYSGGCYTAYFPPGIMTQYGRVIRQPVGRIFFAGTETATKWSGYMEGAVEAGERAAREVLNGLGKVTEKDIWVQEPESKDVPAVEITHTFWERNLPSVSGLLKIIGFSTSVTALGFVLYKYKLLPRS
Source text: as §1

plasma binding proteins = test: fraction unbound in 100% plasma, dog; format: in vitro ADME
Source text: While the risk of DDIs due to displacement from plasma binding proteins (PPBs) is relatively low, it should be considered for drugs which display a high proportion PPB (fraction unbound (fu)<1%).
The fu was investigated for 2R,6R-hydroxynorketamine using a 100% plasma from 4 test species.

CYP2C19 = CYP2C19 (Homo sapiens, UniProt P33261); test: CYP inhibition assay, CYP2C19; format: in vitro ADME
Chain of CYP2C19 (P33261 whole entry): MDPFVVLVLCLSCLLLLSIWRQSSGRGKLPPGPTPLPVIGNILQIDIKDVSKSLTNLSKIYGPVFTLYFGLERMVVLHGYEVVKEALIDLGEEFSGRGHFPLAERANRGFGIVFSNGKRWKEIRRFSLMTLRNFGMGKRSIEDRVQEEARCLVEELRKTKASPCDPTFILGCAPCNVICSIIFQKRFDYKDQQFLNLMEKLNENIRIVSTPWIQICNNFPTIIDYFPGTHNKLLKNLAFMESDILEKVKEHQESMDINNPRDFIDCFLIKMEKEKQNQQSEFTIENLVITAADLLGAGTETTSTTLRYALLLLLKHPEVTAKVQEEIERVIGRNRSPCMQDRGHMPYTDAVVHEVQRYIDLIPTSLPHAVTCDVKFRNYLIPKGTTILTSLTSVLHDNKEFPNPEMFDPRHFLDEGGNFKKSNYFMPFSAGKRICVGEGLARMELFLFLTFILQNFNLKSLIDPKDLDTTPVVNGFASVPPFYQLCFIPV
Source text: (§2) Cytochrome P450s (CYPs) are a family of enzymes that play a primary role in the metabolism of a wide variety of drugs. 2R,6R-hydroxynorketamine was investigated for its potential to inhibit the action of 7 key CYP enzymes using an inhibition assay measuring reduction in the formation of metabolites compared to control.

CYP2C8 = target: T1, CYP2C8 (Homo sapiens, UniProt P10632); test: CYP inhibition assay, CYP2C8; format: in vitro ADME
T1 sequence (P10632 1-490): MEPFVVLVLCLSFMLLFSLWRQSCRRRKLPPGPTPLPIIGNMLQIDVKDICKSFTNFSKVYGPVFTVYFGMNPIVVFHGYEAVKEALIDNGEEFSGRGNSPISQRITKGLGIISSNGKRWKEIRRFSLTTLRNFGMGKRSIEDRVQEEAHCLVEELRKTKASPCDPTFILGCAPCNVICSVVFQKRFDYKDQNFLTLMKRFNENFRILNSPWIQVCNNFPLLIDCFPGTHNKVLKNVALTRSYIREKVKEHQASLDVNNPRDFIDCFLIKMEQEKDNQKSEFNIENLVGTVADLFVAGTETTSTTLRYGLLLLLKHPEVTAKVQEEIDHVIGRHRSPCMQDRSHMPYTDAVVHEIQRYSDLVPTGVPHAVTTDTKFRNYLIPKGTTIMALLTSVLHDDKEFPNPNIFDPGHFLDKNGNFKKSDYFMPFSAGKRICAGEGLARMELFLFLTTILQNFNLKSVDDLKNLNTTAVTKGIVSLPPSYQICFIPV
Source text: as §2

CYP2C9 = CYP2C9 (Homo sapiens, UniProt P11712); test: CYP inhibition assay, CYP2C9; format: in vitro ADME
Chain of CYP2C9 (P11712 whole entry): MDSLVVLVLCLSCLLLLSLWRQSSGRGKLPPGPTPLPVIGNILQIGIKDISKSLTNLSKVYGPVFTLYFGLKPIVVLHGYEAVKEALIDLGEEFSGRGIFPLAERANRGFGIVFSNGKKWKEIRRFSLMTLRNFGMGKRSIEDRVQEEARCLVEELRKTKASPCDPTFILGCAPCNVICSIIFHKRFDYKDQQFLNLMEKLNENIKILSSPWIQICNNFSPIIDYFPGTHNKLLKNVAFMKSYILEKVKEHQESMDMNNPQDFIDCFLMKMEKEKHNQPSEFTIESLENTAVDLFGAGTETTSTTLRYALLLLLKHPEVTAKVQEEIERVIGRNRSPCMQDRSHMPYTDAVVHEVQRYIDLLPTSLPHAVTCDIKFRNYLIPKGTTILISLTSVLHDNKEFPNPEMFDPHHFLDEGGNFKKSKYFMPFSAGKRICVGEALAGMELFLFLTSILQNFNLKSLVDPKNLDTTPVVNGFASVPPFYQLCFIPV
Source text: as §2

CYP2B6 = target: T2, CYP2B6 (Homo sapiens, UniProt P20813); test: CYP inhibition assay, CYP2B6; format: in vitro ADME
T2 sequence (P20813 1-491): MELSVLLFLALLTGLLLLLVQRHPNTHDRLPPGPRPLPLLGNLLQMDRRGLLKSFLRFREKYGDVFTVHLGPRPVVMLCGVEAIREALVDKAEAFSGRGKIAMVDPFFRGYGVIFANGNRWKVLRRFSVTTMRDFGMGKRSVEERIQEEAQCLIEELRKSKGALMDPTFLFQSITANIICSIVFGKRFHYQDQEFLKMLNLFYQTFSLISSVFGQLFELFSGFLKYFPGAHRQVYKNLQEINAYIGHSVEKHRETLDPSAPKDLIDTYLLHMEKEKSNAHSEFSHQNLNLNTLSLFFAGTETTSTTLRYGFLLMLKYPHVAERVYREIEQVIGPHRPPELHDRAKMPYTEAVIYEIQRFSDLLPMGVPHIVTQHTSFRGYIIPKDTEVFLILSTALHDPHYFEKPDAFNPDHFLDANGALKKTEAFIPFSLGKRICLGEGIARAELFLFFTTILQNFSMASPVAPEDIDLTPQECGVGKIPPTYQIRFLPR
Source text: as §2

[1] = turbidimetric aqueous solubility; format: physicochemical
[2] = in vitro hepatocyte stability assay, rat; format: in vitro ADME; conditions: cryopreserved hepatocytes
Procedure: (§3) 2R,6R-hydroxynorketamine was investigated using an in vitro hepatocyte stability assay, during which 2R,6R-hydroxynorketamine was incubated with cryopreserved hepatocytes from 3 test species.

[3] = in vitro hepatocyte stability assay, dog; format: in vitro ADME; conditions: cryopreserved hepatocytes
Procedure: as §3

[4] = system: cryopreserved hepatocytes; test: in vitro hepatocyte stability assay, human; format: in vitro ADME
Procedure: as §3

metabolite profiling = format: in vitro ADME; conditions: hepatocyte data with metabolite profiling
Procedure: as §3

in vitro = conditions: human

SMILES: N[C@@]1(c2ccccc2Cl)CCC[C@@H](O)C1=O [2R,6R-hydroxynorketamine]
- % Inhibition of Control Specific Binding (5-HT1, Non-Selective): −9%
- % of Control Specific Binding (5-HT1, Non-Selective): 105.4%
- binding to 5HT1 receptors (5-HT1, Non-Selective): does not bind
- % Inhibition of Control Specific Binding (MAO-A): −5%
- % of Control Specific Binding (MAO-A): 97.7%
- plasma protein binding (PPB), words (plasma binding proteins): low PPB
- inhibition of CYP2C19 (CYP2C19): did not inhibit
- inhibition at 0.4 µM (CYP2C19; human, 0.4 μM): -2.01%
- inhibition at 1 µM (CYP2C19; human, 1 μM): -1.66%
- inhibition at 4 µM (CYP2C19; human, 4 μM): 1.85%
- inhibition at 10 µM (CYP2C19; human, 10 μM): 6.69%
- inhibition at 40 µM (CYP2C19; human, 40 μM): 8.25%
- inhibition at 100 µM (CYP2C19; human, 100 μM): 16.1%
- inhibition of CYP2C8 (CYP2C8): did not inhibit
- inhibition at 0.4 µM (CYP2C8; human, 0.4 μM): 5.63%
- inhibition at 1 µM (CYP2C8; human, 1 μM): 4.91%
- inhibition at 4 µM (CYP2C8; human, 4 μM): 12.5%
- inhibition at 10 µM (CYP2C8; human, 10 μM): 8.33%
- inhibition at 40 µM (CYP2C8; human, 40 μM): 8.35%
- inhibition at 100 µM (CYP2C8; human, 100 μM): 2.08%
- inhibition of CYP2C9 (CYP2C9): did not inhibit
- inhibition at 0.4 µM (CYP2C9; human, 0.4 μM): 4.59%
- inhibition at 1 µM (CYP2C9; human, 1 μM): 5.92%
- inhibition at 4 µM (CYP2C9; human, 4 μM): 5.8%
- inhibition at 10 µM (CYP2C9; human, 10 μM): 11.9%
- inhibition at 40 µM (CYP2C9; human, 40 μM): -0.113%
- inhibition at 100 µM (CYP2C9; human, 100 μM): -1.33%
- inhibition of CYP2B6 (CYP2B6): did not inhibit
- inhibition at 0.4 µM (CYP2B6; human, 0.4 μM): 6.03%
- inhibition at 1 µM (CYP2B6; human, 1 μM): 10.1%
- inhibition at 4 µM (CYP2B6; human, 4 μM): 10.6%
- inhibition at 10 µM (CYP2B6; human, 10 μM): 14.4%
- inhibition at 40 µM (CYP2B6; human, 40 μM): 14.8%
- inhibition at 100 µM (CYP2B6; human, 100 μM): 16.7%
- estimated precipitation range lower bound [1]: 100 µM
- estimated precipitation range upper bound [1]: > 100 µM
- solubility [1]: high solubility
- half-life [2]: 0.418 h
- hepatocyte CLint [2]: 55.2 µL/min/1e6 cells
- half-life [3]: 4.9 h
- hepatocyte CLint [3]: 4.72 µL/min/1e6 cells
- CLint ([4]; Human hepatocytes): −1.07 gL/min/10^6 cells
- hepatic clearance in humans ([4]; human hepatocyte stability assay): does not undergo hepatic clearance
- phase I metabolism by CYP enzymes (metabolite profiling): does not undergo phase I metabolism
- route of metabolism and excretion (metabolite profiling): glucuronidated and excreted via the renal system
- recovery (in vitro; Caco-2, Direction = A2B Mean % Recovery, Caco-2, A2B): 98.9%
- Papp A→B (in vitro; Caco-2, Direction = A2B Mean Papp, Caco-2, A2B, mean, n 2): 45.7 ×10⁻⁶ cm/s
- Papp A→B (in vitro; Caco-2, Direction = A2B Papp Replicate 1, Caco-2, A2B, replicate 1): 49.1 ×10⁻⁶ cm/s
- Papp A→B (in vitro; Caco-2, Direction = A2B Papp Replicate 2, Caco-2, A2B, replicate 2): 42.3 ×10⁻⁶ cm/s
- recovery (in vitro; Caco-2, Direction = B2A Mean % Recovery, Caco-2, B2A): 103%
- Papp B→A (in vitro; Caco-2, Direction = B2A Mean Papp, Caco-2, B2A, mean, n 2): 50.7 ×10⁻⁶ cm/s
- Papp B→A (in vitro; Caco-2, Direction = B2A Papp Replicate 1, Caco-2, B2A, replicate 1): 52.8 ×10⁻⁶ cm/s
- Papp B→A (in vitro; Caco-2, Direction = B2A Papp Replicate 2, Caco-2, B2A, replicate 2): 48.5 ×10⁻⁶ cm/s
- efflux ratio (in vitro; Caco-2, Efflux Ratio (Mean Papp B2A/Mean Papp A2B), Caco-2, without inhibitor): < 2
